For one data set, the system named is humans. Kind of data set: administration to humans, adverse effects. Type of data set: in vivo, human. The note with it: doses exceeding 15 g/m^2.
Another data set concerns mice. Conditions: mouse, in vivo.
For the next data set, the system named is dogs. Conditions: dog, in vivo.
For data set [1] the following is noted: accepted value; cited from earlier work.
A further data set has as its system aldose reductase. Conditions: humans, mainly in the 1980s; cited from earlier work.

Consider 3 molecules from patent publication US6251881A, “Method of treating diabetic angiopathy” (priority 1999, dated 2001).

Structures are written as SMILES.

`O=S(=O)([O-])CCSSCCS(=O)(=O)[O-].[Na+].[Na+]`: the adverse effects result in the data set on humans, with mice and with dogs was “no adverse effects” each time.
As for `[Cl-].[Na+]` [common table salt], the “oral LD50” value in data set [1] is 3750 mg/kg.
With `O=C1NC(=O)[C@@]2(CCOc3ccc(F)cc32)N1` [sorbinil], in the data set with aldose reductase, the “efficacy in slowing the progress of diabetic retinopathy” value is given as “some efficacy” and the tolerability in patients entry is reported as “not well tolerated”.
